According to US20070043035A1, “Novel compounds and their use in medicine: process for their preparation and pharmaceutical compositions containing them” (priority 2003, published 2007):

Legend:
hPPARγ1 = target: T1, hPPARγ1 (Homo sapiens, UniProt P37231); experiment: Determination of hPPARγ activity (GAL4-LBD luciferase reporter in HEK-293 cells); assay type: cell-based; conditions: compound concentration 1 μM
T1 construct: expressed in transfected cells; host or cells: HEK-293
T1 sequence (P37231 238-503 limits assumed): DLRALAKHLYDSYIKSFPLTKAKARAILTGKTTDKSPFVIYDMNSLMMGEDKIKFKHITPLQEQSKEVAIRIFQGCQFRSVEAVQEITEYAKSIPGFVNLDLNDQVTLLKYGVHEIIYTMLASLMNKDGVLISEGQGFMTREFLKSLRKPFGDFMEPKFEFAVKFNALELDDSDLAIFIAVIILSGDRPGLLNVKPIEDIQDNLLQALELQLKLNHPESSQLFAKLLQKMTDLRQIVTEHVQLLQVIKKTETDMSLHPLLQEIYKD
Protocol: Ligand binding domain of hPPARγ1 is fused to DNA binding domain of Yeast transcription factor GAL4 in eucaryotic expression vector. Using lipofectamine (Gibco BRL, USA) as transfecting reagent HEK-293 cells are transfected with this plasmid and a reporter plasmid harboring the luciferase gene driven by a GAL4 specific promoter. Compound can be added at 1 μM. concentration after 48 hrs of transfection and incubated overnight Luciferase activity as a function of drug binding/activation capacity of PPARγ1 will be measured using Packard Luclite kit (Packard, USA) in Packard Top Count (Ivan Sadowski, Brendan Bell, Peter Broag and Melvyn Hollis. Gene. 1992. 118:137-141; Guide to Eukaryotic Transfections with Cationic Lipid Reagents. Life Technologies, GIBCO BRL, USA).

hPPARα = target: T2, hPPARα (Homo sapiens, UniProt Q07869); experiment: Determination of hPPARα activity (GAL4-LBD luciferase reporter in HEK-293 cells); assay type: cell-based; conditions: compound concentration 50 μM
T2 construct: expressed in transfected cells; host or cells: HEK-293
T2 sequence (Q07869 239-466 limits assumed): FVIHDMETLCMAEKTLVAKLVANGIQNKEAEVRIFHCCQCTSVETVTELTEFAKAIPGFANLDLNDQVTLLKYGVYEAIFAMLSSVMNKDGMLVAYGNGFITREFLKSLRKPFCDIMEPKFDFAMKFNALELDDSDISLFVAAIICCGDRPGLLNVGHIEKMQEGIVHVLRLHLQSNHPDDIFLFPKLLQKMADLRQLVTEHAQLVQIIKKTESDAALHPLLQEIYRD
Protocol: Ligand binding domain of hPPARα was fused to DNA binding domain of Yeast transcription factor Gal 4 in eucaryotic expression vector. Using superfect (Qiagen, Germany) as transfecting reagent HEK-293 cells are transfected with this plasmid and a reporter plasmid harboring the luciferase gene driven by a GAL4 specific promoter. Compound can be added at different concentrations after 42 hrs of transfection and incubated overnight. Luciferase activity as a function of compound binding/activation capacity of PPARα will be measured using Packard Luclite kit (Packard, USA) in Top Count (Ivan Sadowski, Brendan Bell, Peter Broag and Melvyn Hollis. Gene. 1992. 118: 137-141; Superfect Transfection Reagent Handbook. February 1997. Qiagen, Germany).

[1] = tested on: cholesterol fed Syrian Hamsters; experiment: Body weight reducing effect in cholesterol fed hamsters; assay type: in vivo, hamster; conditions: dose 3 mg/kg, oral, 15 days
Protocol: Male Syrian Hamsters are procured from NIN, Hyderabad, India. Animals are housed at DRF animal house under 12 hour light and dark cycle at 25±1° C. with free access to food and water. Animals are maintained with 1% cholesterol containing standard laboratory chow (NIN) from the day of treatment.
The test compounds can be administered orally at 1 to 30 mg/kg/day dose for 15 days. Control group animals are treated with vehicle (Mill Q water, dose 10 ml/kg/day). Body weights are measured on every 3rd day.
(§1) Formulae for Calculation: 1. Percent reduction in Blood sugar triglycerides/total cholesterol will be calculated according to the formula: [formula] OC=Zero day control group value OT=Zero day treated group value TC=Test day control group value TT=Test day treated group value 2. LDL and VLDL cholesterol levels will be calculated according to the formula: [formula] [formula]

C57BL/Ks-db/db mice = experiment: Efficacy in genetic models: triglyceride lowering in db/db mice; assay type: in vivo, mouse; conditions: dose 1 mg/kg, oral gavage daily for 6 days, plasma
Excerpt: Mutation in colonies of laboratory animals and different sensitivities to dietary regimens has made the development of animal models with non-insulin dependent diabetes and hyperlipidemia associated with obesity and insulin resistance possible. Genetic models such as db/db and ob/ob (Diabetes, (1982) 31(1): 1-6) mice and zucker fa/fa rats have been developed by the various laboratories for understanding the pathophysiology of disease and testing the efficacy of new antidiabetic compounds (Diabetes, (1983) 32: 830-838; Annu. Rep. Sankyo Res. Lab. (1994). 46: 1-57). […]
The random blood sugar and triglyceride levels can be measured by collecting blood (100 μl) through orbital sinus, using heparinised capillary in tubes containing EDTA which was centrifuged to obtain plasma. The plasma glucose and triglyceride levels can be measured spectrometrically, by glucose oxidase and glycerol-3-PO4 oxidase/peroxidase enzyme (Dr. Reddy's Lab. Diagnostic Division Kits, Hyderabad, India) methods respectively.
The blood sugar and triglycerides lowering activities of the test compound are calculated according to the formula.
(§2) Formulae for Calculation: 1. Percent reduction in Blood sugar triglycerides/total cholesterol will be calculated according to the formula: [formula] […] LDL and VLDL cholesterol levels will be calculated according to the formula: [formula] […]

[2] = tested on: hypercholesterolemic Sprague Dawley rats; experiment: Plasma triglyceride and cholesterol lowering activity in hypercholesterolemic rat models; assay type: in vivo; conditions: dose 1 mg/kg, oral, 3 days
Protocol: Male Sprague Dawley rats (NIN stock) were bred in DRF animal house. Animals were maintained under 12 hour light and dark cycle at 25±1° C. Rats of 180-200 gram body weight range were used for the experiment. Animals are made hypercholesterolemic by feeding 2% cholesterol and 1% sodium cholate mixed with standard laboratory chow [National Institute of Nutrition (NE), Hyderabad, India] for 6 days. Throughout the experimental period the animals were maintained on the same diet (Petit, D., Bonnefis, M. T., Rey, C and Infante, P Effects of ciprofibrate on liver lipids and lipoprotein synthesis in normo- and hyperlipidemic rats. Atherosclerosis. 1988. 74: 215-225).
The test compounds can be administered orally at a dose 0.1 to 30 mg/kg/day for 3 days. Control group was treated with vehicle alone (0.25% Carboxymethylcellulose; dose 10 ml/kg).
The blood samples can be collected in fed state 1 hour after drug administration on 0 and 3 day of compound treatment The blood can be collected from the retro-orbital sinus through heparinised capillary in EDTA containing tubes. After centrifugation, plasma sample will be separated for total cholesterol, HDL and triglyceride estimations. Measurement of plasma triglyceride, total cholesterol and HDL are were done using commercial kits (Dr. Reddy's Laboratory, Diagnostic Division, India). LDL and VLDL cholesterol can be calculated from the data obtained for total cholesterol, HDL and triglyceride. The reduction of various parameters examined are calculated according to the formula.
as §1

Swiss albino mice = experiment: Plasma triglyceride and total cholesterol lowering activity in Swiss albino mice; assay type: in vivo, mouse; conditions: dose 3 mg/kg, oral, 6 days
Protocol: Male Swiss albino mice (SAM) were obtained from NIN and housed in DRF animal house. All these animals are maintained under 12 hour light and dark cycle at 25±1° C. Animals are given standard laboratory chow (NIN, Hyderabad, India) and water, ad libitum. SAM of 20-25 g body weight range and Guinea pigs of 500-700 g body weight range are used (Oliver, P., Plancke, M. O., Marzin, D., Clavey, V., Sauzieres, J and Fruchart, J. C. Effects of fenofibrate, gemfibrozil and nicotinic acid on plasma lipoprotein levels in normal and hyperlipidemic mice. Atherosclerosis. 1988. 70: 107-114).
The test compounds can be administered orally to Swiss albino mice at 0.3 to 30 mg/kg/day dose for 6 days. Control mice are treated with vehicle (0.25% Carboxymethylcellulose; dose 10 ml/kg). The test compounds are administered orally to Guinea pigs at 0.3 to 30 mg/kg/day dose for 6 days. Control animals are treated with vehicle (0.25% Carboxymethylcellulose; dose 5 ml/kg).
The blood samples can be collected in fed state 1 hour after drug administration on 0 and 6 day of treatment. […]
as §2

| melting point | Compound | further results |
| --- | --- | --- |
| 150 to 154 °C | C/C(=C\COc1ccc(OC(C)(C)C(=O)O)cc1)c1ccc(-c2ccc(C(F)(F)F)cc2)cc1 [Example 40] | PPARγ (hPPARγ1): 1.3; PPARα (hPPARα): 12.6 |
| 162 to 165 °C | C/C(=C\COc1ccc(SC(C)(C)C(=O)O)cc1)c1ccc(-c2ccccc2)cc1 [Example 41] | – |
| 142 to 146 °C | C/C(=C\COc1ccc(SC(C)(C)C(=O)O)cc1)c1ccc(-c2ccc(C(F)(F)F)cc2)cc1 [Example 42] | – |
| 52 to 54 °C | C/C(=C\COc1ccc(OC(C)(C)C(=O)O)cc1)c1ccc(-c2cc(Cl)cc(Cl)c2)cc1 [Example 38] | – |
| 136 to 140 °C | C/C(=C\COc1ccc(OC(C(=O)O)C(C)C)cc1)c1ccc(-c2ccccc2)cc1 (centres unmarked) [Example 44] | – |
| 120 to 122 °C | CC(CCOc1ccc(OC(C)(C)C(=O)O)cc1)c1ccc(-c2ccccc2)cc1 (centres unmarked) [Example 49] | – |
| 172 to 174 °C | CC(C)(Oc1ccc(OC/C=C/c2ccc(-c3ccccc3)cc2)cc1)C(=O)O [Example 43] | – |
| 142 to 144 °C | C/C(=C\COc1ccc(OC2(C(=O)O)CCCC2)cc1)c1ccc(-c2ccccc2)cc1 [Example 47] | – |
| 64 to 66 °C | CC(C)(Oc1ccc(OCCCc2ccc(OS(C)(=O)=O)cc2)cc1)C(=O)O [Example 48] | – |
| 112 to 114 °C | CC(C)(Oc1ccc(OC/C=C/c2ccc(OS(C)(=O)=O)cc2)cc1)C(=O)O [Example 45] | – |

The remaining lines, values behind:

| Compound | melting point | further results |
| --- | --- | --- |
| CCOC(=O)C(C)(C)Oc1ccc(OC/C=C(\C)c2ccc3c(c2)Cc2ccccc2-3)cc1 [Example 7] | 155 to 158 °C | – |
| C/C(=C\COc1ccc(OC(C)(C)C(=O)O)cc1)c1ccc(-c2ccccc2)cc1 [Example 25, 2-[4-(3-Biphenyl-4-yl-but-2-enyloxy)phenoxy]-2-methyl propanoic acid] | – | Reduction in Body weight (%) [1]: 22%; Reduction in Total Cholesterol (%) [1]: 55%; Reduction in Triglyceride (%) [1]: 45% |
| CCC(C)(Oc1ccc(OC/C=C(\C)c2ccc(-c3ccccc3)cc2)cc1)C(=O)O (centres unmarked) [Example 37] | 114 to 117 °C | Triglyceride Lowering (%) (C57BL/Ks-db/db mice): 52%; PPARγ (hPPARγ1): 2.8; PPARα (hPPARα): 12.2; Reduction in Low Density Lipoprotien (%) ([2]; LDL calculated from total cholesterol, HDL and triglyceride): 64%; Increase in High Density Lipoprotien (%) ([2]; plasma): 70%; Reduction in Total Cholesterol (%) ([2]; plasma): 60%; Triglyceride Lowering (%) ([2]; plasma): 55%; Triglyceride Lowering (%) (Swiss albino mice): 71% |
| CCOC(=O)C1(Oc2ccc(OC/C=C(\C)c3ccc(-c4ccccc4)cc3)cc2)CCCC1 [Example 23] | 112 to 114 °C | – |
| CCC(C)(Oc1ccc(OC/C=C(\C)c2ccc(-c3ccc(F)cc3)cc2)cc1)C(=O)O (centres unmarked) [Example 36] | 122 to 125 °C | – |
| CC(C)(Oc1ccc(OCCc2ccc(-c3ccccc3)cc2)cc1)C(=O)O [Example 30] | 138 to 140 °C | – |
| C/C(=C\CNc1ccc(OC(C)(C)C(=O)O)cc1)c1ccc(-c2ccccc2)cc1 [Example 35] | 184 to 188 °C | – |
| C/C(=C\COc1ccc(OC(C)(C)C(=O)O)cc1)c1ccc2c(c1)Cc1ccccc1-2 [Example 31] | 155 to 158 °C | – |
| CC(C)C(Sc1ccc(OCCCc2ccc(OS(C)(=O)=O)cc2)cc1)C(=O)O (centres unmarked) [Example 28] | 115 to 118 °C | – |
| CCN1c2ccccc2Oc2ccc(/C(C)=C/COc3ccc(OC(C)(C)C(=O)O)cc3)cc21 [Example 32] | 114 to 116 °C | – |
